Measurements from PubChem BioAssay AID248 (DTP/NCI, 2004).
Values joined by “and” are separate entries in the source; they are usually repeats but may differ in a detail not shown here. Equal values may be shown once. Inconclusive results and toxic doses are left out. Cut-off read from the data, not from the text of the source: active = T/C of 150% or more; inactive = T/C below 125%.

Tested on: L1210 leukemia ip in BDF1 mice, survival T/C
Test: NCI In Vivo Anticancer Drug Screen. Data for tumor model L1210 Leukemia (intraperitoneal) in B6D2F1 (BDF1) mice
Details: endpoint: mean survival time, higher = longer survival
Method in brief: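 Antitumor effect is assessed in tumor-bearing animals. Survival in the compound arm is compared with a vehicle-dosed control arm and expressed as their quotient.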

[1] = dose: 100.0 mg/kg/injection, schedule: Q04DX003 (ip), vehicle: Klucel (hydroxypropylcellulose) (HPC)
[2] = dose: 200.0 mg/kg/injection, schedule: Q04DX003 (ip), vehicle: Klucel (hydroxypropylcellulose) (HPC)
[3] = dose: 400.0 mg/kg/injection, schedule: Q04DX003 (ip), vehicle: Klucel (hydroxypropylcellulose) (HPC)
[4] = dose: 100.0 mg/kg/injection, schedule: Q04DX003 (ip), vehicle: saline
[5] = dose: 200.0 mg/kg/injection, schedule: Q04DX003 (ip), vehicle: saline
[6] = dose: 400.0 mg/kg/injection, schedule: Q04DX003 (ip), vehicle: saline

Measured: T/C

O=C(C=C(C(F)(F)F)C(F)(F)F)c1ccc(Cl)c([N+](=O)[O-])c1
inactive: dose: 0.5 mg/kg/injection, schedule: Q01DX009 (ip), vehicle: other 98 % of control | dose: 1.0 mg/kg/injection, schedule: Q01DX009 (ip), vehicle: other 95 % of control | dose: 2.5 mg/kg/injection, schedule: Q01DX009 (ip), vehicle: other 101 % of control | dose: 2.5 mg/kg/injection, schedule: Q01DX009 (ip), vehicle: saline with Tween-80 96 % of control | dose: 6.0 mg/kg/injection, schedule: Q01DX001 (ip), vehicle: saline with Tween-80 103 % of control | dose: 12.0 mg/kg/injection, schedule: Q01DX001 (ip), vehicle: saline with Tween-80 98 % of control | dose: 25.0 mg/kg/injection, schedule: Q01DX001 (ip), vehicle: saline with Tween-80 95 % of control and 100 % of control

O=C(CCCc1ccc(N(CCCl)CCCl)cc1)OCCc1ccccc1
inactive: dose: 25.0 mg/kg/injection, schedule: Q04DX002 (ip), vehicle: saline 111 % of control | dose: 50.0 mg/kg/injection, schedule: Q04DX002 (ip), vehicle: saline 114 % of control | dose: 100.0 mg/kg/injection, schedule: Q04DX002 (ip), vehicle: saline 124 % of control | dose: 200.0 mg/kg/injection, schedule: Q04DX002 (ip), vehicle: saline 112 % of control and 122 % of control | dose: 400.0 mg/kg/injection, schedule: Q04DX002 (ip), vehicle: saline 112 % of control

Cc1ccc(NC(=O)COc2cc(Cl)c(Cl)cc2Cl)c([N+](=O)[O-])c1
inactive: dose: 100.0 mg/kg/injection, schedule: Q01DX009 (ip), vehicle: Klucel (hydroxypropylcellulose) (HPC) 105 % of control | [1] 106 % of control | dose: 200.0 mg/kg/injection, schedule: Q01DX009 (ip), vehicle: Klucel (hydroxypropylcellulose) (HPC) 89 % of control | [2] 102 % of control | dose: 400.0 mg/kg/injection, schedule: Q01DX009 (ip), vehicle: Klucel (hydroxypropylcellulose) (HPC) 89 % of control | [3] 93 % of control

NC(N)=N/N=C(/c1ccccc1)c1ccccc1F
inactive: dose: 15.0 mg/kg/injection, schedule: Q01DX Z (ip), vehicle: saline 111 % of control | dose: 30.0 mg/kg/injection, schedule: Q01DX Z (ip), vehicle: saline 100 % of control | dose: 60.0 mg/kg/injection, schedule: Q01DX Z (ip), vehicle: saline 108 % of control | dose: 120.0 mg/kg/injection, schedule: Q01DX Z (ip), vehicle: saline 103 % of control | dose: 120.0 mg/kg/injection, schedule: Q01DX Z (oral), vehicle: saline 105 % of control | dose: 240.0 mg/kg/injection, schedule: Q01DX Z (ip), vehicle: saline 95 % of control | dose: 240.0 mg/kg/injection, schedule: Q01DX Z (oral), vehicle: saline 105 % of control | dose: 480.0 mg/kg/injection, schedule: Q01DX Z (ip), vehicle: saline 96 % of control | dose: 480.0 mg/kg/injection, schedule: Q01DX Z (oral), vehicle: saline 105 % of control

CCOC(=O)/C(=N/N=C(N)N)c1c(C)[nH]c2ccccc12
inactive: dose: 15.0 mg/kg/injection, schedule: Q01DX Z (ip), vehicle: carboxymethylcellulose (CMC) 102 % of control | dose: 30.0 mg/kg/injection, schedule: Q01DX Z (ip), vehicle: carboxymethylcellulose (CMC) 100 % of control | dose: 60.0 mg/kg/injection, schedule: Q01DX Z (ip), vehicle: carboxymethylcellulose (CMC) 95 % of control and 100 % of control | dose: 120.0 mg/kg/injection, schedule: Q01DX Z (ip), vehicle: carboxymethylcellulose (CMC) 93 % of control and 100 % of control | dose: 240.0 mg/kg/injection, schedule: Q01DX Z (ip), vehicle: carboxymethylcellulose (CMC) 100 % of control | dose: 240.0 mg/kg/injection, schedule: Q01DX Z (sc), vehicle: carboxymethylcellulose (CMC) 112 % of control | dose: 480.0 mg/kg/injection, schedule: Q01DX Z (ip), vehicle: carboxymethylcellulose (CMC) 90 % of control | dose: 480.0 mg/kg/injection, schedule: Q01DX Z (sc), vehicle: carboxymethylcellulose (CMC) 114 % of control | dose: 960.0 mg/kg/injection, schedule: Q01DX Z (sc), vehicle: carboxymethylcellulose (CMC) 120 % of control | dose: 1920.0 mg/kg/injection, schedule: Q01DX Z (sc), vehicle: carboxymethylcellulose (CMC) 103 % of control

O=S(=O)(O)c1cc(O)c2c(O)c(N=Nc3ccccc3[As](=O)(O)O)c(S(=O)(=O)O)cc2c1
inactive: dose: 50.0 mg/kg/injection, schedule: Q04DX003 (ip), vehicle: saline 102 % of control | [4] 98 % of control and 99 % of control | [5] 103 % of control and 120 % of control | [6] 101 % of control and 103 % of control

Cc1cc(NC(=O)NCc2ccc(N)cc2)ccc1S(=O)(=O)F
inactive: dose: 100.0 mg/kg/injection, schedule: Q01DX009 (ip), vehicle: saline 95 % of control | [4] 100 % of control | dose: 200.0 mg/kg/injection, schedule: Q01DX009 (ip), vehicle: saline 114 % of control | [5] 96 % of control | dose: 400.0 mg/kg/injection, schedule: Q01DX009 (ip), vehicle: saline 93 % of control | [6] 100 % of control

Cc1ccc(S(=O)(=O)Nc2ccccc2N=Cc2ccc(N(CCCl)CCCl)cc2C)cc1
inactive: dose: 100.0 mg/kg/injection, schedule: Q01DX001 (ip), vehicle: carboxymethylcellulose (CMC) 101 % of control | dose: 200.0 mg/kg/injection, schedule: Q01DX001 (ip), vehicle: carboxymethylcellulose (CMC) 103 % of control | dose: 400.0 mg/kg/injection, schedule: Q01DX001 (ip), vehicle: carboxymethylcellulose (CMC) 86 % of control

O=C(O)CNCCN1CC(=O)NC1=S
inactive: dose: 100.0 mg/kg/injection, schedule: Q04DX002 (ip), vehicle: saline with Tween-80 107 % of control | dose: 200.0 mg/kg/injection, schedule: Q04DX002 (ip), vehicle: saline with Tween-80 92 % of control | dose: 400.0 mg/kg/injection, schedule: Q04DX002 (ip), vehicle: saline with Tween-80 90 % of control

CCOC(=O)CCc1c(C(=O)OCC)[nH]c(C)c1C(=O)O
inactive: [1] 95 % of control | [2] 98 % of control | [3] 97 % of control
